BigSolDB 2.1

O=[N+]([O-])c1cc[nH]n1
solubility (mole fraction)
Details | 283.15 K | 288.15 K | 293.15 K | 298.15 K | 303.15 K | 308.15 K | 313.15 K | 318.15 K | 323.15 K
in 1,2-dichlorobenzene | 0.0009 | 0.00242 | 0.00425 | 0.00666 | 0.00908 | 0.0113 | 0.0139 | 0.0166 | 0.0197
in 2-ethylhexyl acetate | 0.00998 | 0.0107 | 0.0115 | 0.0122 | 0.0134 | 0.0146 | 0.0166 | – | –
in anisole | 0.00502 | 0.00551 | 0.00623 | 0.00688 | 0.0078 | 0.0092 | 0.0112 | 0.0132 | 0.0156
in benzonitrile | 0.0197 | 0.0223 | 0.0253 | 0.0291 | 0.0342 | 0.0396 | 0.0486 | 0.0631 | 0.0828
in benzyl alcohol | 0.0263 | 0.0296 | 0.0333 | 0.0391 | 0.0452 | 0.0508 | 0.0581 | 0.0672 | 0.0753
in mesitylene | 0.00129 | 0.00162 | 0.002 | 0.00246 | 0.00288 | 0.00335 | 0.00401 | 0.00476 | 0.00578
in n-octanol | 0.0127 | 0.0144 | 0.0164 | 0.0192 | 0.0232 | 0.0272 | 0.0315 | 0.0362 | 0.0429
